According to the kinase profiling compilation of Christmann-Franck et al. (2016):

Key:
Experiment in all cases: radiometric filter-binding kinase assay
AURKB (human) = AURKB (human) (UniProt Q96GD4)
BRSK2 (human) = BRSK2 (human) (UniProt Q8IWQ3)
CAMKK2 (human) = CAMKK2 (human) (UniProt Q96RR4)
CHEK1 (human) = CHEK1 (human) (UniProt O14757)
CLK2 (human) = CLK2 (human) (UniProt P49760)
CSNK2A1 (human) = CSNK2A1 (human) (UniProt P68400)
CaMK1 (human) = CaMK1 (human) (UniProt Q14012)
DAPK1 (human) = DAPK1 (human) (UniProt P53355)
DYRK1A (human) = DYRK1A (human) (UniProt Q13627)
DYRK3 (human) = DYRK3 (human) (UniProt O43781)
DYRK3 (human), sequence (O43781 whole entry, looked up): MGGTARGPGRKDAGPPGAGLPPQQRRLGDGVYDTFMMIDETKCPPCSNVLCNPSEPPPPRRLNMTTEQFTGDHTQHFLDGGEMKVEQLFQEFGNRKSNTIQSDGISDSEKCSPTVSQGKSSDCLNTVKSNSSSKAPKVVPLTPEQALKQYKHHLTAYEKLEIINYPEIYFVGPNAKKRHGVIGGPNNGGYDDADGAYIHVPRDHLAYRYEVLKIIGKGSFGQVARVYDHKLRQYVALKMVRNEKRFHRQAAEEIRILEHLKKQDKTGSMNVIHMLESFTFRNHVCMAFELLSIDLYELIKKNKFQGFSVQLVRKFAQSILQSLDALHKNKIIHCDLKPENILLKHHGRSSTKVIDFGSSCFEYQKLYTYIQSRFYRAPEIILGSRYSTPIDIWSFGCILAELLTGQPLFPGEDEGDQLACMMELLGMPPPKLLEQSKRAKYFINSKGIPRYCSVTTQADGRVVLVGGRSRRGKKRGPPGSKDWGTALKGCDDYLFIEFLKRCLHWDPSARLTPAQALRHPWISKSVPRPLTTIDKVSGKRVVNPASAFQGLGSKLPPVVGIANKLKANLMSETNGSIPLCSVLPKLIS

EPHB2 (human) = EPHB2 (human) (UniProt P29323)
FGFR1 (human) = FGFR1 (human) (UniProt P11362)
FGFR1 (human), sequence (P11362 whole entry, looked up): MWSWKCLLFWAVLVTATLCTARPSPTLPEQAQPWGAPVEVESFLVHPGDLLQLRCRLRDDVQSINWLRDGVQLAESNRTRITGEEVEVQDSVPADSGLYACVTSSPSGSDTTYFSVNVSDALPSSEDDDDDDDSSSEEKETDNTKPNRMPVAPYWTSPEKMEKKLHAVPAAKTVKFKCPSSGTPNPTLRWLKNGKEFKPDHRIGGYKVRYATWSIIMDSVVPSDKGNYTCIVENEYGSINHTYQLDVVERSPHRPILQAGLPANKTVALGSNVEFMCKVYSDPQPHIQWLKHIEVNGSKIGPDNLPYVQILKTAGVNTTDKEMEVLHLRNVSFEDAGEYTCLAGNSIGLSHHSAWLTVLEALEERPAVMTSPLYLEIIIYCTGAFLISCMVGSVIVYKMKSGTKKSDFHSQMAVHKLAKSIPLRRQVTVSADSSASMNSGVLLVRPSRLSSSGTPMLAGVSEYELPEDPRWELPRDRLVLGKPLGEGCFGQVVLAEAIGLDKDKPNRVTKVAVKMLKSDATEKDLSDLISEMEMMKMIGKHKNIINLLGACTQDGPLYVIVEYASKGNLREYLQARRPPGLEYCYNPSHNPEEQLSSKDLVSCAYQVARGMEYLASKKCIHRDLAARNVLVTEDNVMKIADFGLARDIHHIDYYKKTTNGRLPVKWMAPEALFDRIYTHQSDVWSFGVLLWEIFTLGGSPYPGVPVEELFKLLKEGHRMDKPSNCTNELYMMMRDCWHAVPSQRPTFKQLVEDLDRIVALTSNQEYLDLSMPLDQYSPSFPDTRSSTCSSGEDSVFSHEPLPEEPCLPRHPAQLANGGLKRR

GCK (human) = GCK (human) (UniProt Q12851)
HIPK1 (human) = HIPK1 (human) (UniProt Q86Z02)
HIPK1 (human), sequence (Q86Z02 whole entry, looked up): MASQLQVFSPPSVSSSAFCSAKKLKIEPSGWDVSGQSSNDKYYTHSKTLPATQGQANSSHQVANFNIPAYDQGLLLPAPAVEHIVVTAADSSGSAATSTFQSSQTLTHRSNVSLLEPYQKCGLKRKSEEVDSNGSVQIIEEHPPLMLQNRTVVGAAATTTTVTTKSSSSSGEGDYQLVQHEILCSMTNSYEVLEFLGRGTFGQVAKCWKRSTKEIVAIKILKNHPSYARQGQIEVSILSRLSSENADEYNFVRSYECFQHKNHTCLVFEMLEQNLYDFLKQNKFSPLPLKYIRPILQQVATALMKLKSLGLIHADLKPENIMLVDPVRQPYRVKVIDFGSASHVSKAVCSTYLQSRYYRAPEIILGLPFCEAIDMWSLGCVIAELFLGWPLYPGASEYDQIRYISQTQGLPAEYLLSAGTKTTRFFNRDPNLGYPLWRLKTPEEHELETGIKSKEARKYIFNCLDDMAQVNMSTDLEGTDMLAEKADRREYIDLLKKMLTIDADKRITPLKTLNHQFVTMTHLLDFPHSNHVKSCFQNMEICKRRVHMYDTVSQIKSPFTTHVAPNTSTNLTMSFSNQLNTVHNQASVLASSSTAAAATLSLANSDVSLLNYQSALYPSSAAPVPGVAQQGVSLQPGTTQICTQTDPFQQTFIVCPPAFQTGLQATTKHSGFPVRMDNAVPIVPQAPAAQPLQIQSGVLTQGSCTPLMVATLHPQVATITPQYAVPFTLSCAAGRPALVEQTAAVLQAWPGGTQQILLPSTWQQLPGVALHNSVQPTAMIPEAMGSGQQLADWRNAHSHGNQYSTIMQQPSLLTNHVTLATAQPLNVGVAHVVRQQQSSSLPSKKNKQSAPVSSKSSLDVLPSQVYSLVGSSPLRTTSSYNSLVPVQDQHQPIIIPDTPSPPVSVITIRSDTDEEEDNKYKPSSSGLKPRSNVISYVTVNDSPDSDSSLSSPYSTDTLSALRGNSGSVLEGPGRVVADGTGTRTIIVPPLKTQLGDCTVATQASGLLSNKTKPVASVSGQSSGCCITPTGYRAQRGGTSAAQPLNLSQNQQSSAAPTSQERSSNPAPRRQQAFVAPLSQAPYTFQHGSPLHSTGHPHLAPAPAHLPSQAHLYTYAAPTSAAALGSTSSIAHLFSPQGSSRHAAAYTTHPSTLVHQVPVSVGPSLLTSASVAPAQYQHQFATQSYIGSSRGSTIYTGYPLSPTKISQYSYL

HIPK2 (human) = HIPK2 (human) (UniProt Q9H2X6)
IGF1R (human) = IGF1R (human) (UniProt P08069)
JAK2 JH1 JH2 (human) = JAK2 JH1 JH2 (human) (UniProt O60674)
LCK (mouse) = conditions: accession and sequence are those of the human protein
MAPK10 (human) = MAPK10 (human) (UniProt P53779)
MAPK11 (human) = MAPK11 (human) (UniProt Q15759)
MAPK13 (human) = MAPK13 (human) (UniProt O15264)
MAPK8 (human) = MAPK8 (human) (UniProt P45983)
MAPK8 (human), sequence (P45983 whole entry, looked up): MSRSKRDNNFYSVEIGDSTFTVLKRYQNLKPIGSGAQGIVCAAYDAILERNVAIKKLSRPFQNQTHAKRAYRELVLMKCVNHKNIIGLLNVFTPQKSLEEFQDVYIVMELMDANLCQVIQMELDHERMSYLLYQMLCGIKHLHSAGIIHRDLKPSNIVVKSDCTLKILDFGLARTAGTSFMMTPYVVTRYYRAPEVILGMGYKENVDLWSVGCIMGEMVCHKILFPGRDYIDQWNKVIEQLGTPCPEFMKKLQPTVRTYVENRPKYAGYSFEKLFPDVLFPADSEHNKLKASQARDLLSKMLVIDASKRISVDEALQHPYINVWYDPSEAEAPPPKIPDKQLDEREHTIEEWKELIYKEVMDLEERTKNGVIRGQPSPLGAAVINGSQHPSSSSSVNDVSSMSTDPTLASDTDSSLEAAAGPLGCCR

MAPKAPK5 (human) = MAPKAPK5 (human) (UniProt Q8IW41)
MARK3 (human) = MARK3 (human) (UniProt P27448)
MINK1 (human) = MINK1 (human) (UniProt Q8N4C8)
MKNK1 (human) = MKNK1 (human) (UniProt Q9BUB5)
MKNK1 (human), sequence (Q9BUB5 whole entry, looked up): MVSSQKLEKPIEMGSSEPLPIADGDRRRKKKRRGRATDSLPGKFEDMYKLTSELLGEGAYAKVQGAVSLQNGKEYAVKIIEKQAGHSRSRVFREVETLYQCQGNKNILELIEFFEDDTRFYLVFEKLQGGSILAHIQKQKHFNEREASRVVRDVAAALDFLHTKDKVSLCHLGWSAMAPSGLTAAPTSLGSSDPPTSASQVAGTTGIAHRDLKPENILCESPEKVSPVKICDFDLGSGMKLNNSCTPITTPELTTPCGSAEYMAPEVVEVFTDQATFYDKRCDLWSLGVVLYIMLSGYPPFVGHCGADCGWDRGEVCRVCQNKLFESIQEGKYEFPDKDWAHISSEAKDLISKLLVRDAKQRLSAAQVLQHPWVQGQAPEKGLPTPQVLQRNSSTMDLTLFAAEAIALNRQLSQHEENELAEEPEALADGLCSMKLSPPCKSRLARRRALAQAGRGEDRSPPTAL

[1] = test system: PAK2 (human), Q13177 [T402E]
PHKG1 (human) = PHKG1 (human) (UniProt Q16816)
PIM3 (human) = PIM3 (human) (UniProt Q86V86)
ROCK2 (rat) = conditions: accession and sequence are those of the human protein
[2] = test system: SGK1 (human), O00141 [S422D]
SRPK1 (human) = SRPK1 (human) (UniProt Q96SB4)
SRPK1 (human), sequence (Q96SB4 whole entry, looked up): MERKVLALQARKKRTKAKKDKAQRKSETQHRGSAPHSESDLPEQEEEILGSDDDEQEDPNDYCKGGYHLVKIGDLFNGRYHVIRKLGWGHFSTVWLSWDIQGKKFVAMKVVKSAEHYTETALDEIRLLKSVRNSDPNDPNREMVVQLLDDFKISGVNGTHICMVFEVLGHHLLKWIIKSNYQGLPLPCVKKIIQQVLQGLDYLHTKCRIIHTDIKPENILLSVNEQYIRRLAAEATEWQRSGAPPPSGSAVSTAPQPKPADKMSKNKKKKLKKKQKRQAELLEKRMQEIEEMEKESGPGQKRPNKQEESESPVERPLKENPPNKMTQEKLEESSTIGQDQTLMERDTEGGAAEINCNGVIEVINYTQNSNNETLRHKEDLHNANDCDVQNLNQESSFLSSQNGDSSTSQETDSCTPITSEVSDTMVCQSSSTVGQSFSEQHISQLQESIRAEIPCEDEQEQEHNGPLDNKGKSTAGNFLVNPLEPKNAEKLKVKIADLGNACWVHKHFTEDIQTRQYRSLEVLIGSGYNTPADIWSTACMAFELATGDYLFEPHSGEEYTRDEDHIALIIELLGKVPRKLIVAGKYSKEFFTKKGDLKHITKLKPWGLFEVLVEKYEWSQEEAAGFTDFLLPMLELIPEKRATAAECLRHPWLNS

STK3 (human) = STK3 (human) (UniProt Q13188)
TBK1 (human) = TBK1 (human) (UniProt Q9UHD2)
YES1 (human) = YES1 (human) (UniProt P07947)

CaMK1 (human), sequence (Q14012 whole entry, looked up): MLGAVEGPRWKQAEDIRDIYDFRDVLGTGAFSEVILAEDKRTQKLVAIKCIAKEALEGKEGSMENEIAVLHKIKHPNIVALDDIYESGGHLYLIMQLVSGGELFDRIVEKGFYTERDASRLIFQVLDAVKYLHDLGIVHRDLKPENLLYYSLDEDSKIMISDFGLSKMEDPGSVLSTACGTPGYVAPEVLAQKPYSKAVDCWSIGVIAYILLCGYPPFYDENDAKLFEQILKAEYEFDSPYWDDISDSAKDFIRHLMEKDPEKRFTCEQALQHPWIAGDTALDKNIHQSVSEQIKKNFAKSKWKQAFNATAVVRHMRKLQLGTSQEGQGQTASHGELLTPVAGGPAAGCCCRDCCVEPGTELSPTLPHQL
AURKB (human), sequence (Q96GD4 whole entry, looked up): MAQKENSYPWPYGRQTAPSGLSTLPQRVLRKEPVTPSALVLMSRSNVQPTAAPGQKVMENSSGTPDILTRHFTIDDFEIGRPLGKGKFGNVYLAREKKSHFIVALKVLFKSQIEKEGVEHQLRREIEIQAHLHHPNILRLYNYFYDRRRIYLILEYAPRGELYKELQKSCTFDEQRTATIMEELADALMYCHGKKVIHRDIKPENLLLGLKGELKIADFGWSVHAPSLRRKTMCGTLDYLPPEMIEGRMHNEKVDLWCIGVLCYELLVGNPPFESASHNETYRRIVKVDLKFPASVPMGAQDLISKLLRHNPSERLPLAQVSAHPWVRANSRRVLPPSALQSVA

A residual activity (AURKB (human); compound 0.1 µM) of 110%, a residual activity (AURKB (human); compound 1.0 µM) of 96% and a residual activity (AURKB (human); compound 10.0 µM) of 43% were found for `NC(=O)c1cc2c(-c3cccc(-c4ccccc4)c3)cnc(N)c2s1` in this work. The residual activity (BRSK2 (human); compound 0.1 µM) was 109%, the residual activity (BRSK2 (human); compound 1.0 µM) was 108% and the residual activity (BRSK2 (human); compound 10.0 µM) was 130%. For the same molecule, the residual activity (CAMKK2 (human); compound 0.1 µM) was 99%, the residual activity (CAMKK2 (human); compound 1.0 µM) was 61% and the residual activity (CAMKK2 (human); compound 10.0 µM) was 30%. For the same molecule, the residual activity (CHEK1 (human); compound 0.1 µM) was 100%, the residual activity (CHEK1 (human); compound 1.0 µM) was 64% and the residual activity (CHEK1 (human); compound 10.0 µM) was 29%. The residual activity (CLK2 (human); compound 0.1 µM) was 50%, the residual activity (CLK2 (human); compound 1.0 µM) was 10% and the residual activity (CLK2 (human); compound 10.0 µM) was 2%. The residual activity (CSNK2A1 (human); compound 0.1 µM) was 91%, the residual activity (CSNK2A1 (human); compound 1.0 µM) was 94% and the residual activity (CSNK2A1 (human); compound 10.0 µM) was 100%. It also gave a residual activity (CaMK1 (human); compound 0.1 µM) of 107%, a residual activity (CaMK1 (human); compound 1.0 µM) of 90% and a residual activity (CaMK1 (human); compound 10.0 µM) of 38%. For the same molecule, the residual activity (DAPK1 (human); compound 0.1 µM) was 76%, the residual activity (DAPK1 (human); compound 1.0 µM) was 40% and the residual activity (DAPK1 (human); compound 10.0 µM) was 10%. It also gave a residual activity (DYRK1A (human); compound 0.1 µM) of 72%, a residual activity (DYRK1A (human); compound 1.0 µM) of 21% and a residual activity (DYRK1A (human); compound 10.0 µM) of 5%. For the same molecule, the residual activity (DYRK3 (human); compound 0.1 µM) was 97%, the residual activity (DYRK3 (human); compound 1.0 µM) was 76% and the residual activity (DYRK3 (human); compound 10.0 µM) was 59%. For the same molecule, the residual activity (EPHB2 (human); compound 0.1 µM) was 90%, the residual activity (EPHB2 (human); compound 1.0 µM) was 74% and the residual activity (EPHB2 (human); compound 10.0 µM) was 24%. The residual activity (FGFR1 (human); compound 0.1 µM) was 104%, the residual activity (FGFR1 (human); compound 1.0 µM) was 96% and the residual activity (FGFR1 (human); compound 10.0 µM) was 85%. It also gave a residual activity (GCK (human); compound 0.1 µM) of 7%, a residual activity (GCK (human); compound 1.0 µM) of 6% and a residual activity (GCK (human); compound 10.0 µM) of 5%. The residual activity (HIPK1 (human); compound 0.1 µM) was 86%, the residual activity (HIPK1 (human); compound 1.0 µM) was 37% and the residual activity (HIPK1 (human); compound 10.0 µM) was 13%. It also gave a residual activity (HIPK2 (human); compound 0.1 µM) of 64%, a residual activity (HIPK2 (human); compound 1.0 µM) of 22% and a residual activity (HIPK2 (human); compound 10.0 µM) of 9%. It also gave a residual activity (IGF1R (human); compound 0.1 µM) of 113%, a residual activity (IGF1R (human); compound 1.0 µM) of 87% and a residual activity (IGF1R (human); compound 10.0 µM) of 13%. It also gave a residual activity (JAK2 JH1 JH2 (human); compound 0.1 µM) of 101%, a residual activity (JAK2 JH1 JH2 (human); compound 1.0 µM) of 90% and a residual activity (JAK2 JH1 JH2 (human); compound 10.0 µM) of 43%. For the same molecule, the residual activity (LCK (mouse); compound 0.1 µM) was 105%, the residual activity (LCK (mouse); compound 1.0 µM) was 88% and the residual activity (LCK (mouse); compound 10.0 µM) was 67%. For the same molecule, the residual activity (MAPK10 (human); compound 0.1 µM) was 97%, the residual activity (MAPK10 (human); compound 10.0 µM) was 46% and the residual activity (MAPK11 (human); compound 0.1 µM) was 96%. The residual activity (MAPK11 (human); compound 1.0 µM) was 111%, the residual activity (MAPK11 (human); compound 10.0 µM) was 80% and the residual activity (MAPK13 (human); compound 0.1 µM) was 83%. It also gave a residual activity (MAPK13 (human); compound 1.0 µM) of 77%, a residual activity (MAPK13 (human); compound 10.0 µM) of 36% and a residual activity (MAPK8 (human); compound 0.1 µM) of 111%. The residual activity (MAPK8 (human); compound 1.0 µM) was 69%, the residual activity (MAPK8 (human); compound 10.0 µM) was 15% and the residual activity (MAPKAPK5 (human); compound 0.1 µM) was 87%. For the same molecule, the residual activity (MAPKAPK5 (human); compound 1.0 µM) was 42%, the residual activity (MAPKAPK5 (human); compound 10.0 µM) was 15% and the residual activity (MARK3 (human); compound 0.1 µM) was 104%. It also gave a residual activity (MARK3 (human); compound 1.0 µM) of 69%, a residual activity (MARK3 (human); compound 10.0 µM) of 26% and a residual activity (MINK1 (human); compound 0.1 µM) of 58%. For the same molecule, the residual activity (MINK1 (human); compound 1.0 µM) was 12%, the residual activity (MINK1 (human); compound 10.0 µM) was 4% and the residual activity (MKNK1 (human); compound 0.1 µM) was 107%. For the same molecule, the residual activity (MKNK1 (human); compound 1.0 µM) was 114%, the residual activity (MKNK1 (human); compound 10.0 µM) was 99% and the residual activity ([1]; compound 0.1 µM) was 100%. For the same molecule, the residual activity ([1]; compound 1.0 µM) was 93%, the residual activity ([1]; compound 10.0 µM) was 84% and the residual activity (PHKG1 (human); compound 0.1 µM) was 104%. The residual activity (PHKG1 (human); compound 1.0 µM) was 92%, the residual activity (PHKG1 (human); compound 10.0 µM) was 55% and the residual activity (PIM3 (human); compound 0.1 µM) was 101%. The residual activity (PIM3 (human); compound 1.0 µM) was 88%, the residual activity (PIM3 (human); compound 10.0 µM) was 42% and the residual activity (ROCK2 (rat); compound 0.1 µM) was 75%. The residual activity (ROCK2 (rat); compound 1.0 µM) was 31%, the residual activity (ROCK2 (rat); compound 10.0 µM) was 7% and the residual activity ([2]; compound 0.1 µM) was 92%. For the same molecule, the residual activity ([2]; compound 1.0 µM) was 58%, the residual activity ([2]; compound 10.0 µM) was 46% and the residual activity (SRPK1 (human); compound 0.1 µM) was 87%. It also gave a residual activity (SRPK1 (human); compound 1.0 µM) of 67%, a residual activity (SRPK1 (human); compound 10.0 µM) of 17% and a residual activity (STK3 (human); compound 0.1 µM) of 108%. It also gave a residual activity (STK3 (human); compound 1.0 µM) of 59%, a residual activity (STK3 (human); compound 10.0 µM) of 21% and a residual activity (TBK1 (human); compound 0.1 µM) of 98%. It also gave a residual activity (TBK1 (human); compound 1.0 µM) of 91%, a residual activity (TBK1 (human); compound 10.0 µM) of 47% and a residual activity (YES1 (human); compound 1.0 µM) of 66%. It also gave a residual activity (YES1 (human); compound 10.0 µM) of 13%.
